Measurements taken from US20100087459A1, “FORMS OF LAPATINIB COMPOUNDS AND PROCESSES FOR THE PREPARATION THEREOF” (priority 2008, published 2010).

Experiment: stability of crystalline Form M1 in commonly used solvents and at high temperature
Assay type: physicochemical
Conditions: solvents used for production and especially for formulation of the pharmaceutical product

- stability in commonly used solvents: high stability
Substance: Lapatinib monotosylate [Form M1]
